Patent US6011000A, “Compositions for the treatment of blood disorders” (priority 1995, dated 2000)

Columns and labels:
[1] = test system: γ globin mRNA of bone marrow cells; settings: cited from earlier work
[2] = test system: fetal reticulocyte production; settings: cited from earlier work
globin expression = settings: cited from earlier work
[3] = test system: γ-globin promoter (-61 construct, K562 cells); assay type: cell-based, human
Text: Functional assay underscores the important role of FRE-γ1 in γ-globin gene expression in K562 cells. To ascertain whether the FRE elements of the γ-globin promoter that were identified by in vivo footprinting were indeed involved in arginine butyrate inducibility for γ-globin gene expression, a series of 5' deletion constructs of the γ-globin promoter, extending from -256 to -61, were constructed and linked them to the NEO gene. Activity of the NEO gene of these constructs, in response to arginine butyrate treatment, was examined by transfecting these reporters into K562 cells. In K562 cells, a construct driven by 256 bp of promoter was able to direct NEO activity expression, resulting in colony formation. […] Deletion to position -61 reduced promoter activity to 33-40% of the activity seen with the -256 bp construct.

MCF-7 cells = experiment: Growth/viability of human mammary carcinoma cells; assay type: cell-based; settings: MCF7, 96 h, 1.0 mM, 4 days, read-out: growth decrease of MCF-7 cells
Experimental: Human mammary carcinoma cells (MCF-7) were cultured alone (controls) and with arginine butyrate or isobutyramide for 4 days. Viability was assayed by FACS after incubation with a fluorescent dye taken up by viable cells (FIG. 6). Growth was decreased by 50% with isobutyramide at 1.0 mM, about 60% with arginine butyrate at 0.5 mM, and greater than 90% with arginine butyrate at 1.0 mM.

human erythroid cells = experiment: DNA fragmentation by flow cytometry (degradation of DNA); assay type: cell-based
Experimental: Such activities might limit their utility for treatment of anemias such as occur in thalassemia, but alternatively would be useful for anticancer effects. To determine cell viability, human erythroid cells were cultured in the presence and absence of these compounds for 4 days and the amount of DNA fragmentation which occurred was measured.
Flow cytometric determination of DNA profiles and DNA fragmentation were determined. Cytometric analysis was performed with a FACScan (Becton Dickenson Instruments; Columbia, Md.). The data analysis and display were performed using the Cell-Fit software program. Approximately 0.5×10^6 cells were washed twice with PBS and resuspended in 1 ml of 1% sodium citrate, 0.1% Triton X-100 and 50 μg of propidium iodide/ml. Resulting permeabilized cells were kept in the dark at 4° C. overnight before DNA profile or DNA fragmentation analysis (Table 4).

[4] = test system: erythroid cells (peripheral blood); experiment: Erythroid cell viability by fluorescent staining (Calcein-AM), FIG. 2; assay type: cell-based, human; settings: 0.5 mM, vs untreated controls
Experimental: FIG. 2 Peripheral blood cell viability after incubation with arginine butyrate, dihydrocinnamic acid, phenoxyacetic acid and butyric acid ethyl ester.
Compositions were tested for the ability to directly stimulate erythroid cell growth. Cell growth stimulation is a useful property for an agent to be used to treat anemias and distinguishes such agents from the cytotoxic drugs currently being tested for treatment of hemoglobinopathies. Cell viability analyses were performed using fluorescent staining to detect living cells. Cells were in log phase of growth in 6-well dishes when used in proliferation assays. For enumeration of living cells, wells were washed once with medium to remove nonadherent or dead cells. Remaining live cells were labeled with 2 μM 2',7'-bis-(carboxyethyl)-5-(and 6)-carboxy-fluorescein acetoxy-methyl ester (Calcein-AM) (Molecular Probes; Eugene, Oreg.) for 20 minutes at 37° C. and washed once. Fluorescence intensity of live cells was read on a CytoFluor 2300 Fluorescence Plate Scanner (Millipore; Bedford, Mass.) at excitation and emission wavelengths of 485 and 530 nm, respectively. The fluorescence intensity of a well was proportional to the number of living cells in the well. Background fluorescence was measured separately for each plate and subtracted from all readings. Each experiment was performed in triplicate or quadruplicate. The standard deviation (SD) of repetitive readings was less than 30% of the mean. Results are depicted in FIG. 2.

fetal globin production = settings: cited from earlier work
[5] = Hemoglobin and red blood cell levels in a patient with thalassemia intermedia; assay type: in vivo, human; set-up: Hgb-A1 / Hgb-A2 / HbF: unit not given here; settings: for RBC: 50 mg/kg 3 days/week
Experimental: This patient received isobutyramide at 50 mg/kg for 3 days/week over the course of the study.

[6] = test system: system A transport (K562 cells and nucleated erythroblasts from fetal liver); experiment: Effects on system A amino acid transport (3H-MAIB uptake); assay type: cell-based, human
Experimental: Inhibition of nutrient uptake is undesirable for treatment of anemias. Methyl aminoisobutyric acid (MAIB) labeled with tritium (^3 H) is normally taken up by system A amino acid transport. Cold (unlabeled) compounds were added to cultures containing ^3 H-MAIB and incubated for 1 hour. Cells were harvested and the amount of ^3 H taken up by cells was quantitated by scintillation counting.

Friend leukemia cells = settings: cited from earlier work
fetal globin synthesis = settings: cited from earlier work
[7] = test system: fetal globin expression in K562 human erythroleukemia cells; settings: cited from earlier work
[8] = test system: fetal globin synthesis in tissue culture cells; settings: cited from earlier work
[9] = test system: cultured human erythrocytes; settings: cited from earlier work
[10] = 50 mg/kg, 3 days/week, four month study

For `Nc1ncn([C@@H]2O[C@H](CO)[C@@H](O)[C@H]2O)c(=O)n1` [AZA, 5-azacytidine], the “increase in γ globin mRNA of bone marrow cells” value ([1]; continuous intravenous) is listed as “five- to seven-fold increase” and the “population of stem cells in the bone marrow” value ([1]; in vivo) is listed as “significant alterations in the population of stem cells in the bone marrow”.

For `Nc1ccn([C@@H]2O[C@H](CO)[C@@H](O)[C@@H]2O)c(=O)n1` [AraC, cytosine arabinoside], the fetal reticulocyte production [2] is listed as “induces fetal reticulocyte production”.

For `NC(=O)NO` [Hydroxyurea], the “specificity to fetal globin” value (globin expression) is given as “did not appear to be very specific to fetal globin”.

For `CC(C)C(N)=O` [IBT, isobutyramide], the “induction of construct activity” value [3] was 2.5-4 fold, the inhibition at 1000 µM (MCF-7 cells) was 50% and the “proportion of degraded DNA” value (human erythroid cells; 1.0 mM to 2.0 mM, untreated 26%) was 44%. The “Degraded DNA” value (human erythroid cells; 2.0 mM, 4 days, control 26%, 22%) was 34%, the “DNA fragmentation / cell viability / DNA integrity” value (human erythroid cells; DNA fragmentation assays) was “decrease cell viability” and the “erythroid cell growth and proliferation” value [4] was “either had no effect or stimulated erythroid cell growth and proliferation”. The “stimulation of fetal globin production” value (fetal globin production) was “effective in stimulating fetal globin production”, the “rise in hematocrit (Hct)” value [5, 10] was 5.8% and the “rise in hemoglobin (Hgb)” value [5, 10] was 1.6 g/dL. The “rise in reticulocytes (Retics)” value [5, 10] was “about 50%”, the “rise in total red blood cells (RBC)” value [5, 10] was ~10^6 /μl and the “total red blood cells (RBC) at end” value ([5]; 50 mg/kg, 3 days/week, four month study, from 6.48) was 7.3 10^6 cells/μl. The “hemoglobin (Hgb) at end” value ([5]; 50 mg/kg, 3 days/week, four month study, from 10.1) was 11.7 g/dL, the “hematocrit (Hct) at end” value ([5]; 50 mg/kg, 3 days/week, four month study, from 31.0%) was 36.9% and the HbF ([5]; Day 1) was 4.4. For the same molecule, the Hct ([5]; Day 1) was 31.1%, the Hgb ([5]; Day 1) was 10.1 g/dL and the Hgb-A1 ([5]; Day 1) was 89.2. The Hgb-A2 ([5]; Day 1) was 6.4, the RBC ([5]; Day 1) was 6.48 10^6 cells/μl and the HbF ([5]; Day 8) was 6.4. It also gave a Hct ([5]; Day 8) of 36.2%, a Hgb ([5]; Day 8) of 10.8 g/dL and a Hgb-A1 ([5]; Day 8) of 89.2. The Hgb-A2 ([5]; Day 8) was 6.2, the RBC ([5]; Day 8) was 6.76 10^6 cells/μl and the HbF ([5]; Day 15) was 4.4. For the same molecule, the Hct ([5]; Day 15) was 37.0%, the Hgb ([5]; Day 15) was 11.1 g/dL and the Hgb-A1 ([5]; Day 15) was 89.2. The Hgb-A2 ([5]; Day 15) was 6.4, the RBC ([5]; Day 15) was 6.89 10^6 cells/μl and the HbF ([5]; Day 22) was 0.4. It also gave a Hct ([5]; Day 22) of 34.1%, a Hgb ([5]; Day 22) of 10.3 g/dL and a Hgb-A1 ([5]; Day 22) of 89.1. The Hgb-A2 ([5]; Day 22) was 6.9, the RBC ([5]; Day 22) was 6.28 10^6 cells/μl and the HbF ([5]; Day 29) was 4.4. It also gave a Hct ([5]; Day 29) of 36.3%, a Hgb ([5]; Day 29) of 10.9 g/dL and a Hgb-A1 ([5]; Day 29) of 88.6. For the same molecule, the Hgb-A2 ([5]; Day 29) was 7.0, the RBC ([5]; Day 29) was 6.61 10^6 cells/μl and the HbF ([5]; Day 36) was 0.4. For the same molecule, the Hct ([5]; Day 36) was 33.8%, the Hgb ([5]; Day 36) was 10.4 g/dL and the Hgb-A1 ([5]; Day 36) was 88.4. For the same molecule, the Hgb-A2 ([5]; Day 36) was 7.6, the RBC ([5]; Day 36) was 6.28 10^6 cells/μl and the HbF ([5]; Day 43) was 8.4. The Hct ([5]; Day 43) was 36.2%, the Hgb ([5]; Day 43) was 11.0 g/dL and the Hgb-A1 ([5]; Day 43) was 88.7. The Hgb-A2 ([5]; Day 43) was 6.5, the RBC ([5]; Day 43) was 6.38 10^6 cells/μl and the HbF ([5]; Day 55) was 5.4. The Hct ([5]; Day 55) was 34.0%, the Hgb ([5]; Day 55) was 11.4 g/dL and the RBC ([5]; Day 55) was 6.68 10^6 cells/μl. It also gave a HbF ([5]; Day 68) of 1.4, a Hct ([5]; Day 68) of 36.4% and a Hgb ([5]; Day 68) of 11.5 g/dL. For the same molecule, the RBC ([5]; Day 68) was 6.68 10^6 cells/μl, the Hct ([5]; Day 96) was 36.9% and the Hgb ([5]; Day 96) was 11.7 g/dL. For the same molecule, the RBC ([5]; Day 96) was 7.33 10^6 cells/μl, the “fetal globin (HbF)” value ([5]; four month study) was “lack of increased fetal globin (HbF)” and the Hemoglobin-A1 level ([5]; throughout the study) was “approximately constant”. The hemoglobin-A2 level ([5]; throughout the study) was “approximately constant” and the “system A (neutral) amino acid transport” value [6] was “inhibited the neutral amino acid transport mechanism”.

For `CC(=O)O` [acetate], the hemoglobin synthesis (Friend leukemia cells) is listed as “induced hemoglobin synthesis”, the “duration of positive effects” value (fetal globin synthesis) is listed as “positive effects could only be maintained for very short periods of time” and the “erythrocyte precursor populations and fetal globin synthesis” value (fetal globin synthesis) is listed as “increased both erythrocyte precursor populations and also fetal globin synthesis”.

In the case of `CCC(=O)O` [propionate], the hemoglobin synthesis (Friend leukemia cells) is listed as “induced hemoglobin synthesis” and the “increase of fetal globin expression” value [7] is listed as “most effective”.

For “GM-CSF: granulocyte/macrophage-colony stimulating factor (GM-CSF)”, the fetal globin synthesis [8] is listed as “increase fetal globin synthesis in tissue culture cells”.

B1: activin: Activin, sometimes referred to as erythroid differentiating factor (EDF) (protein, UniProt P08476 311-426, looked up)
Inhibin beta A chain: GLECDGKVNICCKKQFFVSFKDIGWNDWIIAPSGYHANYCEGECPSHIAGTSGSSLSFHSTVINHYRMRGHSPFANLKSCCVPTKLRPMSMLYYDDGQNIIKKDIQNMIVEECGCS
modifications: Inhibin beta A chain
For B1, the hemoglobin accumulation [9] is given as “induced hemoglobin accumulation in cultured human erythrocytes”.

B2: inhibin: Inhibin, a disulfide linked hormone of two subunits (protein, UniProt P05111 233-366; P08476 311-426, looked up)
Inhibin alpha chain: STPLMSWPWSPSALRLLQRPPEEPAAHANCHRVALNISFQELGWERWIVYPPSFIFHYCHGGCGLHIPPNLSLPVPGAPPTPAQPYSLLPGAQPCCAALPGTMRPLHVRTTSDGGYSFKYETVPNLLTQHCACI
Inhibin beta A chain: GLECDGKVNICCKKQFFVSFKDIGWNDWIIAPSGYHANYCEGECPSHIAGTSGSSLSFHSTVINHYRMRGHSPFANLKSCCVPTKLRPMSMLYYDDGQNIIKKDIQNMIVEECGCS
For B2, the hemoglobin accumulation [9] is listed as “induced hemoglobin accumulation in cultured human erythrocytes”.
